# Experiments:
# [1] = test system: Fusobacterium necrophorum; assay: Bacterial evaluation of hoof lesion samples (culture, biochemical tests and PCR) before treatment and on Day 7; assay type: in vivo; settings: Day 0 vs Day 7, in comparison to the control group
# Experimental: On Day 0, before treatment, bacteriological samples were collected from the infected hooves of the enrolled cattle. Lesions and lameness were also assessed on Days 2, 4 and 7. Treatment success, improvement, or failure was determined on Day 7 and was based on lameness and lesion score compared to Day 0. On Day 7, another bacteriological sample was collected from all animals. Bacteriological samples were collected on a sterile scraper and on a sterile swab from the border of healthy and necrotic tissue (around the hoof lesion) of the infected hooves of the enrolled cattle. The tip of the scraper, containing discharge from the lesions, was fractured off into 15 ml tubes containing 7 ml of a semi solid transport media formulated exclusively to anaerobic bacteria and the swab was discharged in a semi solid transport. The tubes were kept under refrigeration (4 to 8° C.) until they arrive into the laboratory. At the laboratory, the samples grew in culture media appropriated to F. necrophorum and Dichelobacter nodosus isolation. Isolates were identified using confirmatory biochemical tests and polymerase chain reaction (PCR) specific to F. necrophorum and D. nodosus species.
# [2] = Health observations and adverse events in the foot rot study; assay type: in vivo, bovine animals
# Experimental: (§1) Thirty animals were enrolled to the Control Group and another thirty animals were enrolled in the Tildipirosin treated Group. The tildipirosin-treated group received a single dose, subcutaneously, while the control group was treated with a saline sterile solution. Both groups (treated and control) were housed in the same paddocks under typical Brazilian feedlot conditions.
# [3] = test system: naturally occurring foot rot; assay: Efficacy of a single subcutaneous dose against naturally occurring foot rot in feedlot cattle (lameness and lesion scoring); assay type: in vivo, bovine animals; settings: for average lameness score: score guide 1-5 (Table 1); for average lesion score: score guide 1-5 (Table 2)
# Experimental: as §1
# Sixty animals were included in the trial in two different phases, according to the number of available animals that fulfill the inclusion criteria. The study was masked. […] The animals were randomized and evenly distributed across the treatment groups according to 15 blocks of 2 animals each in both inclusion dates (there were 2 inclusion dates, for a total of 60 animals).
# The effectiveness of tildipirosin for the treatment of foot rot was evaluated by comparing the proportion of treatment success/improvement in the tildipirosin-treated group to the saline-treated control group on Day 7.
# The lameness and the lesion scoring are described in Tables 1 and 2 below.
# The animals' lesion and lameness score were assessed by the investigator on Days −1 and 0 of the study. To qualify for the effectiveness portion of the study, animals were diagnosed with foot rot by meeting the following criteria: • Lameness Score 3 in at least one foot for 2 consecutive days. • Lesion Score 2 in at least one foot for 2 consecutive days. • Clinically healthy (excepting lameness) • Body weight (348-499 kg body weight) • Age (20-24 months)
# On Day 0, before treatment, bacteriological samples were collected from the infected hooves of the enrolled cattle. Lesions and lameness were also assessed on Days 2, 4 and 7. Treatment success, improvement, or failure was determined on Day 7 and was based on lameness and lesion score compared to Day 0. On Day 7, another bacteriological sample was collected from all animals.
# [4] = Day 0, before treatment, treated group
# [5] = Day 7 after single subcutaneous dose of 4 mg/kg BW
compound,measurement,setting,value
"CC[C@H]1OC(=O)C[C@@H](O)[C@H](C)[C@@H](O[C@@H]2O[C@H](C)[C@@H](O)[C@H](N(C)C)[C@H]2O)[C@@H](CCN2CCCCC2)C[C@@H](C)C(=O)/C=C/C(C)=C/[C@@H]1CN1CCCCC1 [tildipirosin, (4R,5S,6S,7R,9R,11E,13E,15R,16R)-6-[(2R,3R,4S,5S,6R)-4-(dimethylamino)-3,5-dihydroxy-6-methyloxan-2-yl]oxy-16-ethyl-4-hydroxy-5,9,13-trimethyl-7-(2-piperidin-1-ylethyl)-15-(piperidin-1-ylmethyl)-1-oxacyclohexadeca-11,13-diene-2,10-dione]",bacterial evaluation (PCR identification of Fusobacterium necrophorum before vs after treatment),[1],not conclusive
same,abnormal health observations,"[2]; before or after treatment, single subcutaneous dose 4 mg/kg BW",no abnormal health observations
same,"adverse event (broken toenail on Day 7, one animal), relation to treatment","[2]; tildipirosin-treated group, according to the investigator",not related to the tildipirosin treatment
same,average lameness score,[3]; [4],3.1
same,average lesion score,[3]; [4],2.3
same,average lameness score,[3]; [5],1.3
same,average lesion score,[3]; [5],1.9
same,treatment of naturally occurring foot rot,[3]; single subcutaneous dose of 4 mg of tildipirosin per kg BW,effectively treat
